Legend:
Merlin [1] = test: Immunoprecipitation of Merlin and anti-HA blot for ubiquitination in SUM159 cells transfected with HA-ubiquitin and Merlin; assay type: cell-based, human; conditions: SUM159 cells constitutively expressing Merlin, OPN 100 ng/ml, Lactacystin 10 μM, FIG. 4D
Method: (§1) Immunoprecipitation—Cells were transfected with pcDNA3.1 HA-ubiquitin alone or in combination with pIRES2-myc-Merlin and incubated for 24 hrs. Cells were treated with 10 μM Lactacystin, 100 ng/ml OPN and 10 μM AKT inhibitor IV for 12 hrs and lysed in NP-40 buffer. The lysate was immunoprecipitated with anti-Merlin antibody and the immunoprecipitate was assessed by immunoblotting.
To assess the role of activated Akt induced by OPN, cells were co-treated with an Akt inhibitor. SUM159 cells were transfected with HA-ubiquitin and Merlin and treated with OPN (100 ng/ml), Lactacystin (10 μM) and Akt inhibitor IV. Cell lysate (1 mg) harvested in NP40 buffer was immunoprecipitated for Merlin. The immunoprecipitate was immunoblotted with anti-HA antibody. […] Merlin ubiquitination was enhanced when co-treated with OPN and was abolished in the presence of Akt inhibitor re-affirming the role of Akt downstream of OPN in modulating the stability of Merlin (FIG. 4D).

Akt = test: Western blot of phospho-Akt and Merlin in MCF10AT cells treated with OPN and Akt inhibitor IV; assay type: cell-based, human; conditions: FIG. 4B
Source text: (§2) Western Blotting Analysis—Immunoblotting was done with anti-Merlin (Santa Cruz Biotech, Santa Cruz, Calif.), phospho-Ser473-Akt (Cell Signaling, Danvers, MAT), total Akt (Cell Signaling), anti-mouse HA (Santa Cruz), antiphospho-Ser315 Merlin, and anti-GAPDH (Cell Signaling). Anti-rabbit or anti-mouse HRP conjugated secondary antibody was used for detection and blots were developed with SuperSignal substrate (Pierce, Rockford, Ill.) and exposed using a Fuji LAS3000 imager.
(§3) Transfection and Drug Treatment—Cells were transfected with empty vector, Merlin (WT; wild-type) or T230A S315A Merlin mutant and treated with clasto-Lactacystin β-Lactone (Sigma, St. Louis, Mo.) for 2 hours. Recombinant OPN (100 ng/mL) (R&D Systems, Minneapolis, Minn.) was added and cells were lysed after 6 hours. Where indicated, cells were first treated with Akt inhibitor IV (Calbiochem) in serum free media for 30 min followed by 100 ng/mL human rOPN for 24 hours.
OPN interacts with a variety of cell surface receptors including CD44 and multiple integrins to activate signaling via the Akt pathway (31,38,39). […] The levels of total Akt remain unaltered. MCF10AT cells were also treated with Akt inhibitor IV in addition to OPN. […] Phosphorylation of Merlin via Akt targets it for degradation by the proteasome (15,40,41).

Merlin [2] = test: Immunoprecipitation of endogenous Merlin and anti-HA blot for ubiquitination in MCF10AT cells transfected with HA-ubiquitin; assay type: cell-based, human
Method: as §1
To examine if OPN can induce ubiquitination of endogenous Merlin leading to its proteasomal degradation, MCF10AT cells were transfected with a HA-ubiquitin expressing construct. MCF10AT cells were transfected with HA-ubiquitin and treated with OPN, Lactacystin and Akt inhibitor IV. Cell lysate (2 mg) harvested in NP40 buffer was immunoprecipitated overnight for endogenous Merlin. The immunoprecipitate was immunoblotted with anti-HA antibody. Merlin and GAPDH levels from the cell lysates were inputs for the experiment.

Merlin [3] = test: Western blot of Merlin in MDA-MB-435 cells treated with Lactacystin and wortmannin; assay type: cell-based; conditions: combined treatment Lactacystin 10-25 μM and wortmannin 100 nM, FIG. 4E
Method: FIG. 4 depicts OPN targeting Merlin for Akt-mediated proteasomal degradation. FIG. 4A is a Western blot of SUM159 cells transfected with Merlin and treated with OPN and Lactacystin. […] The smear represents ubiquitinated Merlin. FIG. 4D is a Western blot of SUM159 transfected with HA-ubiquitin and Merlin and treated with OPN (100 ng/ml), Lactacystin (10 μM) and Akt inhibitor IV. FIG. 4E is a Western blot of MDA-MB-435 cells treated with the PI-3-kinase inhibitor, wortmannin and Lactacystin. Cells were pre-treated with Wortmannin (100 nM) for 1 hr followed by Lactacystin for 4.5 hours.
The converse was seen when MDAMB-435 cells were treated with the proteasome inhibitor, Lactacystin (10-25 μM) and the PI-3-kinase inhibitor, wortmannin (100 nM). […] Silencing the expression of OPN reduced the overall levels of ubiquitinated Merlin; in combination with Akt inhibitor and Lactacystin, abrogating OPN expression caused a notable decrease in the ubiquitinated Merlin (FIG. 4F).

Merlin [4] = test: Western blot of phosphorylated Merlin (Serine 315) in SUM159 cells transfected with Merlin and treated with OPN; assay type: cell-based, human; conditions: SUM159 cells transfected with Merlin, treated with OPN, FIG. 5A
Source text: as §2
Lysate from SUM159 cells transfected with Merlin and treated with OPN was probed for total Merlin and phosphorylated Merlin (Serine 315). GAPDH was used as a loading control. […] Phosphorylation of Merlin at this residue has been reported to target it for proteasome-mediated degradation (15,40). In particular, […] of Serine 315 and Threonine 230 makes Merlin refractory to OPN. SUM159 cells were transfected with Merlin (WT) or the T230A/S315A Merlin mutant and treated with OPN and Lactacystin. Cell lysates were probed for total Merlin. GAPDH was used as a loading control. Mutant Merlin (T230A S315A) is not degraded in response to OPN, whereas wild-type Merlin is degraded by OPN. […] It was further determined that while OPN is able to induce degradation of Merlin, the Merlin mutant T230A S315A (that cannot be phosphorylated by Akt) is resistant to the effects of OPN (FIG. 5B). […]

Merlin [5] = test: Western blot of Merlin protein levels in SUM159 cells transfected with Merlin cDNA and treated with recombinant OPN and Lactacystin; assay type: cell-based, human; conditions: SUM159 cells transfected with Merlin cDNA, recombinant OPN 100 ng/mL, FIG. 4A
Source text: as §2, §3
Akt signaling initiated downstream of OPN may regulate Merlin. To examine the effects of OPN on the post-translational regulation of Merlin, specifically the stability of Merlin protein, SUM159 breast cancer cells were transfected with Merlin cDNA and treated with recombinant OPN.

Molecule | Merlin ubiquitination (Merlin [1]) | levels of Akt phosphorylation (Akt; Akt inhibitor IV in addition to OPN) | levels of Merlin (Akt; Akt inhibitor IV in the presence of OPN) | ubiquitination of endogenous Merlin (Merlin [2]; co-treatment with Akt inhibitor in the presence of OPN) | Merlin expression (Merlin [3]) | phosphorylation of Merlin at Ser315 (Merlin [4]) | protein levels of Merlin (Merlin [5]) | Akt activation (phosphorylation of Akt to phospho-Akt) (Akt; recombinant OPN alone) | levels of Merlin (Akt; recombinant OPN alone) | ubiquitination of endogenous Merlin (smear) (Merlin [2]; MCF10AT cells transfected with HA-ubiquitin, FIG. 4C)
Akt inhibitor IV | abolished | decreased | restored | abolished | – | – | – | – | – | –
CC(=O)N[C@@H](CSC(=O)[C@]1([C@@H](O)C(C)C)NC(=O)[C@H](C)[C@@H]1O)C(=O)O | – | – | – | – | restored Merlin expression | – | – | – | – | –
OPN: Recombinant OPN (R&D Systems), human rOPN; secreted phosphoglycoprotein osteopontin | enhanced | – | – | – | – | phosphorylation of Merlin at the Ser315 position | decrease in the protein levels of Merlin | activated Akt | decrease in the levels of Merlin | some ubiquitination

From patent US20130137753A1, “METHODS AND COMPOSITIONS FOR THE DIAGNOSIS AND TREATMENT OF BREAST CANCER” (UNIVERSITY OF SOUTH ALABAMA, priority 2010, published 2013)
